Assay results taken from article PMC8400257, “2-Phenoxy-3-Trichloromethylquinoxalines Are Antiplasmodial Derivatives with Activity against the Apicoplast of Plasmodium falciparum” (Pharmaceuticals, 2021).
“Also recorded” adds a separate entry of the source.

What was measured:
[1] = system: K1 chloroquine and pyrimethamine-resistant P. falciparum strain; experiment: In vitro antiplasmodial evaluation (SYBR Green I); format: cell-based, Plasmodium falciparum
Experimental: For all molecules, the selectivity index was calculated as following SI = CC50/EC50.
It was maintained in continuous culture, as described previously by Trager and Jensen. Cultures were maintained in fresh A+ human erythrocytes at 2.5% hematocrit in complete medium (RPMI 1640 with 25 mM HEPES, 25 mM NaHCO3, 10% of A+ human serum) at 37 °C under reduced O2 atmosphere (gas mixture 10% O2, 5% CO2, and 85% N2). Parasitemia was maintained daily between 1 and 3%. The P. falciparum drug susceptibility test was carried out by comparing quantities of DNA in treated and control cultures of parasite in human erythrocytes according to an SYBR Green I fluorescence-based method using a 96-well fluorescence plate reader. Compounds, previously dissolved in DMSO (final concentration less than 0.5% v/v), were incubated in a total assay volume of 200 μL (RPMI, 2% hematocrit and 0.4% parasitemia) for 72 h in a humidified atmosphere (10% O2 and 5% CO2) at 37 °C, in 96-well flat bottom plates. Duplicate assays were performed for each sample. After incubation, plates were frozen at […] for 24 h. Then, the frozen plates were thawed for 1 h at 37 °C. Fifteen µL of each sample were transferred to 96-well flat bottom non-sterile black plates (Greiner Bio-one, Kremsmünster, Austria), already containing 15 µL of the SYBR Green I lysis buffer (2X SYBR Green I, 20 mM Tris base pH 7.5, 20 mM EDTA, 0.008% w/v saponin, 0.08% w/v Triton X-100). […] Plates were incubated for 15 min at 37 °C and then read on a TECAN Infinite F-200 spectrophotometer with excitation and emission wavelengths at 485 and 535 nm, respectively.

[2] = system: P. falciparum (NF135 strain) hepatic exoerythrocytic forms; experiment: Liver stage development in infected primary human hepatocytes; format: cell-based, Plasmodium falciparum
Experimental: The effect of (3i) on the hepatic stage of P. falciparum was next studied in order to know if (3i) was active against another stage of P. falciparum cycle. Cryopreserved primary human hepatocytes were infected with 30,000 freshly extracted P. falciparum sporozoites and simultaneously treated with a dose range (0.9–30 µM) of (3i). Atovaquone (ATQ) was used as a positive parasite-killing control at 25 nM.
P. falciparum (NF135 strain) sporozoites were isolated by dissection of the salivary glands of infected A. stephensi 14–21 days after an infective blood meal (Department of medical microbiology, University Medical Centre, St Radboud, Nijmegen Netherland). All infected salivary glands were removed by hand dissection, crushed in a potter for sporozoites isolation, and filtrated through a 40 μm filter to remove mosquito debris (Cell Strainer, BD BioSciences, Franklin Lakes, NJ, USA). The sporozoites were counted using a disposable Glasstic microscope slide (KOVA, Garden Grove, CA, USA).
One day before hepatocyte thawing, 96-well plates were coated by a Corning®® collagen solution (50 µg/mL rat tail type I collagen in 0.02N acid acetic) over night at room temperature. The next day, the wells were washed twice by PBS solution. Cryopreserved primary human hepatocytes (LONZA, Basel, Swiss) were seeded in 96-well plates with a pre-determined seeding dose that gave a single dense layer of attached hepatocytes. Four days post-seeding, each plate well was infected with 30,000 freshly extracted Plasmodium falciparum sporozoites. […]
Hepatocyte cultures were fixed with 4% paraformaldehyde solution (PFA, Invitrogen) for 10 min. […] Images were analyzed and prepared with ImageJ software. Apicoplast morphology was observed and quantified by eye under a confocal microscope.
Upon immunostaining of parasites, the study plates were scanned using a CellInsight high-content screening platform equipped with the Studio HCS software (Thermo Fisher Scientific, Waltham, MA, USA). […] The number of host hepatocyte nuclei per well was counted by the system as a measure of toxicity of 3i towards the liver cells. […]

## O=[N+]([O-])c1ccc(Oc2nc3ccccc3nc2C(Cl)(Cl)Cl)cc1 [3i, 2-(4-Nitrophenoxy)-3-trichloromethylquinoxaline]
[1]; Plasmodium falciparum, K1, 72 h, K1 strain, 72 h incubation, three independent experiments, read-out: EC50 PfK1 (µM) ± SD
  EC50: 0.2 ± 0.04 µM
[1]; SI = CC50 HepG2/EC50 PfK1
  SI (selectivity index): 160.0
[2]; 3i 0.9-30 µM, ATQ 25 nM, 6 or 12 days post-infection
  Effect on exoerythrocytic forms (EEF or schizont) size and numbers: not observe a significant effect on parasite growth; also recorded: no effect
[2]; up to 30 µM, day 6 post-infection
  Effect on the apicoplast in the hepatic stage: quite not affected
